# Data: publication PMC11071649, “Synthesis and Selective Anticancer Activity Evaluation of 2-phenylacrylonitrile Derivatives as Tubulin Inhibitors” (Current Medicinal Chemistry, 2024)
# Tests used:
# Assay type in all cases: cell-based, human
# [1] = test system: HeLa cervical cancer cell; test: MTT anti-proliferative assay, HeLa; conditions: MTT, 48 h
# Summary of the method: (§1)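 Anti-proliferative effect is measured with the MTT assay, which reports inhibition of net cell growth. Cells come from ATCC, are maintained in DMEM with FBS and are seeded into 96-well plates before treatment.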
# [2] = test system: Raji B lymphoblastoid cell; test: MTT anti-proliferative assay, Raji; conditions: for IC50: MTT, 48 h, read-out: IC50 Raji
# Summary of the method: as §1
# [3] = test system: MCF-10A normal breast cell; test: MTT assay, MCF-10A normal cells; conditions: 48 h
# Summary of the method: as §1
# HepG2 hepatoma cell = test: MTT anti-proliferative assay, HepG2; conditions: for IC50: MTT, 48 h, read-out: IC50 HepG-2
# Summary of the method: as §1
# MCF-7 breast cancer cell = test: MTT anti-proliferative assay, MCF-7; conditions: MTT, 48 h
# Summary of the method: as §1
# A549 lung cancer cell = test: MTT anti-proliferative assay, A549; conditions: MTT, 48 h
# Summary of the method: as §1
# [4] = test system: MGC-803 late stage differentiation gastric cancer cell; test: MTT anti-proliferative assay, MGC-803; conditions: for IC50: MTT, 48 h
# Summary of the method: as §1
# AGS gastric cancer cell = test: MTT anti-proliferative assay, AGS; conditions: for IC50: MTT, 48 h
# Summary of the method: as §1
# [5] = test system: HCT116 colectal cancer cell; test: MTT anti-proliferative assay, HCT116; conditions: for IC50: MTT, 48 h, read-out: IC50 HCT-116
# Summary of the method: as §1
# [6] = test system: diffuse large B-cell lymphoma SU-DHL-10 cell; test: MTT anti-proliferative assay, SU-DHL-10; conditions: MTT, 48 h; read-out: IC50 SU-DHL-10
# Summary of the method: as §1
# [7] = test system: BEL-7402 liver cancer cell; test: MTT anti-proliferative assay, BEL-7402; conditions: for IC50: MTT, 48 h
# Summary of the method: as §1
# L-02 normal liver cell = test: MTT assay, L-02 normal cells; conditions: 48 h
# Summary of the method: as §1
# [8] = test system: SGC-7901 early differentiation gastric cancer cell; test: MTT anti-proliferative assay, SGC-7901; conditions: for IC50: MTT, 48 h
# Summary of the method: as §1
SMILES,IC50 [1] [µM],IC50 [2] [µM],IC50 [3] [µM],IC50 (HepG2 hepatoma cell) [µM],IC50 (MCF-7 breast cancer cell) [µM],IC50 (A549 lung cancer cell) [µM],IC50 [4] [µM],"SI (selectivity index), IC50 (L-02)/IC50 (AGS) (AGS gastric cancer cell)",IC50 (AGS gastric cancer cell) [µM],IC50 [5] [µM],IC50 [6] [µM],IC50 [7] [µM],IC50 (L-02 normal liver cell) [µM],IC50 [8] [µM],"SI (selectivity index), IC50 (L-02)/IC50 (HepG-2) (HepG2 hepatoma cell)","SI (selectivity index), IC50 (L-02)/IC50 (HCT-116) [5]","SI (selectivity index), IC50 (L-02)/IC50 (MGC-803) [4]","SI (selectivity index), IC50 (L-02)/IC50 (BEL-7402) [7]","SI (selectivity index), IC50 (L-02)/IC50 (SGC-7901) [8]","SI (selectivity index), IC50 (L-02)/IC50 (Raji) [2]"
CCCOc1ccc(/C=C(\C#N)c2ccc(OC(F)(F)F)cc2)cc1 [Compound 1a2m],> 100,> 100,> 100,> 100,> 100,> 100,> 100,> 1.4,87.2 ± 5.9,> 100,> 100,> 100,> 100,> 100,,,,,,
COc1ccc(/C=C(\C#N)c2ccc(OC(F)(F)F)cc2)cc1 [Compound 1a2j],> 100,> 100,94.1 ± 3.5,72.6 ± 25.3,> 100,> 100,> 100,> 4.7,21.1 ± 5.2,42.5 ± 12.3,> 100,> 100,> 100,> 100,> 1.3,> 2.3,,,,
N#C/C(=C\c1ccc(F)cc1)c1cccc(OC(F)(F)F)c1 [Compound 1b2b],> 100,17 ± 4.3,11.3 ± 2.3,15.9 ± 5.2,> 100,> 100,1.2 ± 0.6,> 1.9,8.2 ± 2.6,1.1 ± 0.3,60.4 ± 0.7,3 ± 1,16.1 ± 1,5.4 ± 0.2,> 1.0,> 14.5,> 13.1,> 5.2,> 2.9,
COc1ccc(/C=C(\C#N)c2cccc(OC(F)(F)F)c2)cc1 [Compound 1b2j],> 100,> 100,> 100,> 100,> 100,> 100,> 100,,> 100,> 100,> 100,> 100,> 100,72.1 ± 4.5,,,,,> 1.3,
COc1ccc(/C=C(\C#N)c2ccccc2OC(F)(F)F)cc1 [Compound 1c2e],75.8 ± 12.4,41.3 ± 5.5,> 100,24.9 ± 7,> 100,> 100,2.5 ± 1.1,> 4.7,7.6 ± 0.6,8.4 ± 2.4,> 100,10.8 ± 2.3,36.1 ± 4.8,7.8 ± 0.8,> 1.4,> 4.2,> 14.2,> 3.3,> 4.5,
CN(C)c1ccc(/C=C(\C#N)c2cccc(OC(F)(F)F)c2)cc1 [Compound 1b2h],> 100,20.1 ± 2.3,> 100,42.3 ± 18.2,> 100,> 100,3.7 ± 1.3,,> 100,0.3 ± 0.2,> 100,1 ± 0.8,52 ± 8.4,7.1 ± 2.4,> 1.3,> 153.1,> 13.9,> 50.5,> 7.2,> 2.5
N#C/C(=C\c1c(F)cccc1Cl)c1ccc(C(F)(F)F)cc1 [Compound 1f2j],> 100,> 100,> 100,> 100,> 100,> 100,> 100,,> 100,> 100,> 100,> 100,> 100,> 100,,,,,,
Cc1ccc(/C=C(\C#N)c2ccc(OC(F)(F)F)cc2)cc1 [Compound 1a2e],> 100,> 100,> 100,> 100,> 100,> 100,> 100,> 3.2,30.8 ± 7.9,> 100,> 100,> 100,> 100,> 100,,,,,,
N#C/C(=C\c1ccccc1)c1ccccc1OC(F)(F)F [Compound 1c2a],> 100,> 100,> 100,> 100,> 100,> 100,> 100,,> 100,> 100,> 100,> 100,> 100,> 100,,,,,,
